Assay results taken from publication PMC4600319 (Malaria Journal, 2015).
Several values for one entry are separate records, joined by “and”; a condition that tells them apart may be missing. Equal values may be shown once. Read-outs that look alike come from different tables or passages of the source. Each block holds one compound with its values, some of them ahead of it.

What was measured:
[1] = Open-label, three-way, sequential, cross-over pharmacokinetic interaction study, plasma, non-compartmental analysis; assay type: in vivo, human (healthy Thai adults); conditions: for Tmax / AUC(0-t) / Cmax / half-life / AUC(0-inf) / AUC0–12h / Vd/F: plasma; for Tmax / AUC(0-t) / Cmax / half-life / AUC(0-inf) / AUC0–12h / Vd/F / CL/F: median (95 % CI); for inter-individual variability in AUC0−24h / extrapolated AUC from the last blood sampling time to infinity (AUCt−∞) / inter-individual variability of plasma concentrations: in vivo; for plasma concentration 1 h post-dose on Day 3: median; for half-life: read-out: t1/2z (converted); for t1/2z GMR (90 % CI): geometric mean ratio; for Vd/F: read-out: Vz/F
Description: This was an open-label, three-way, sequential, cross-over, pharmacokinetic study in healthy adult volunteers. […] Written informed consent for study participation was obtained from each subject before study. […] Consenting adults were screened for eligibility and a physical examination, electrocardiogram (ECG), and laboratory safety tests (haematology, biochemistry, urinalysis, and pregnancy status) were performed. Figure 1 summarizes the study design. The pharmacokinetic sampling was performed sequentially on three occasions. […] Ltd., China). Mefloquine doses were given as three tablets on Day 1 and two tablets on Day 2 (250 mg mefloquine per tablet, manufactured by Atlantic Pharmaceutical Ltd., China). There was a 2-months wash-out period between Period 1 and Period 2. Period 2: subjects received oral doses of LPV/r (400/100 mg), twice daily, for 14 days (27 doses). There was no washout between Period 2 and Period 3. […] Immediately after collection, all blood samples were centrifuged (1200×g, 10 min) and the plasma samples were stored at -80 °C until analysis. […] University. […] An Agilent 1260 LC system (Agilent Technologies, CA, USA) coupled with an API 5000 triple quadrupole mass spectrometer (Applied Biosystems/MDS SCIEX, Foster City, USA), with a TurboVTM ionization source (TIS) interface operated in the positive ion mode, was used for the multiple reaction monitoring LC-MS/MS analysis. […] Nitrogen gas was supplied from an AB-3G (Peak Scientific, Inchinnan, UK). […] Chromatographic separation was performed using an […] XDB C18 column (5 μm, 4.6 mm × 150 mm; Thermo Fisher Scientific, MA, USA) protected with an Eclipse XDB-C8 guard column (Thermo Electron Corporation, MA, USA). The gradient mobile phase consisted of a mixture of 10 mM ammonium acetate with 0.1 % glacial acetic acid and acetonitrile running at a flow rate of 0.7 mL/min. Total run time was 12 min. […] Measurement of plasma concentrations of mefloquine was performed using high performance liquid chromatography (HPLC) according to the method of Karbwang et al. with modifications. Chromatographic separation was performed on a Hypersil ODS column (5 μm, 4.6 mm × 250 mm; Thermo Fisher Scientific, MA, USA) protected with an Eclipse XDB-C8 guard column (Thermo Electron Corporation, MA, USA). […] The UV detector was set at the wavelength of 220 nm. […] This laboratory participates in the NIAID Clinical Pharmacology Quality Assurance Programme Proficiency Testing. Pharmacokinetic parameters were determined using a non-compartmental analysis using WinNonLin software (version 6.3, […], USA). […] The Cmax (maximum concentration); tmax (time of maximum concentration) were determined by direct inspection of the plasma concentration-time data. […] The extrapolated AUC from the last sampling time to infinity was estimated from Ct/elimination rate constant (lz). lz was calculated from at least five concentration-time points of elimination phase. Apparent oral clearance (CL/F) was calculated as dose/AUC0-∞. Volume of distribution (Vz/F) was calculated as CL/F/lz, and the terminal half-life (t1/2z) was calculated as 0.693/lz. […] Statistical analysis of the data was performed using SPSS version 16.0 (Gorichem, The Netherlands). Pharmacokinetic parameters are presented as median and 95 % confidence intervals (95 % CI). […] Comparison of the frequency of subjects with adverse events between the two groups was performed using a Chi-square test. Statistical significance level was set at a = 0.05 for all tests.

[2] = previous report, healthy Thai volunteers; cited from earlier work
[3] = both sexes, human, oral, 3-day artesunate-mefloquine with LPV/r 400/100 mg twice a day (Period 3), read-out: tmax
[4] = both sexes, human, oral, 3-day artesunate-mefloquine alone (Period 1), read-out: AUC0–24h
[5] = both sexes, human, oral, 3-day artesunate-mefloquine with LPV/r (Period 3), read-out: AUC0–24h
[6] = both sexes, human, oral, 3-day artesunate-mefloquine with LPV/r (Period 3), read-out: Cmax
[7] = both sexes, human, po, 3-day artesunate-mefloquine alone (Period 1), oral, read-out: Cmax
[8] = both sexes, human, 3-day artesunate-mefloquine alone (Period 1), oral, read-out: tmax
[9] = in the presence of LPV/r vs alone
[10] = both sexes, human, oral, 3-day artesunate-mefloquine alone (Period 1)
[11] = both sexes, human, oral, 3-day artesunate-mefloquine with LPV/r (Period 3)
[12] = in the presence of steady-state LPV/r vs alone
[13] = LPV/r 400/100 mg twice daily alone (Period 2)
[14] = LPV/r with 3-day artesunate-mefloquine (Period 3)
[15] = both sexes, human, oral, LPV/r 400/100 mg twice daily alone (Period 2), read-out: Cmax
[16] = both sexes, human, oral, LPV/r 400/100 mg twice daily alone (Period 2)
[17] = both sexes, human, oral, LPV/r with 3-day artesunate-mefloquine (Period 3), read-out: AUC0–12h
[18] = both sexes, human, oral, LPV/r with 3-day artesunate-mefloquine (Period 3)
[19] = in the presence of artesunate-mefloquine vs LPV/r alone
[20] = with artesunate-mefloquine vs LPV/r alone
[21] = 750 and 500 mg 24 h apart vs previous study in healthy Thai subjects, 750 and 500 mg 6 h apart (ref 47, 48)

Structure (SMILES): C[C@H]1[C@H](OC(=O)CCC(=O)O)O[C@@H]2O[C@@]3(C)CC[C@H]4[C@H](C)CC[C@@H]1[C@@]24OO3 [Artesunate, artesunate]
- Tmax [1, 3]: 1 h
- AUC(0-t) [1, 4]: 0.2 µg·h/mL
- AUC(0-t) [1, 5]: 0.24 µg·h/mL
- Cmax [1, 6]: 140 ng/mL
- Cmax [1, 7]: 110 ng/mL
- Tmax [1, 8]: 1 h
- 90 % CI of the GMR of AUC0−24h vs bioequivalent range of 0.8-1.25 ([1]; combination vs alone): outside the acceptable bioequivalent range
- increase in Cmax and systemic exposure [1, 9]: 45–80%
- inter-individual variability in AUC0−24h [1]: 54.4%

Structure (SMILES): C[C@H]1[C@@H](O)O[C@@H]2O[C@@]3(C)CC[C@H]4[C@H](C)CC[C@@H]1[C@@]24OO3 [Dihydroartemisinin, dihydroartemisinin]
- t1/2z [2]: 0.74 h
- reduction in the AUC ([1]; LPV/r co-administration): 50%
- plasma concentration 1 h post-dose on Day 3 ([1]; artesunate given with LPV/r): 310 ng/mL
- plasma concentration 1 h post-dose on Day 3 ([1]; artesunate-mefloquine without LPV/r): 580 ng/mL
- Tmax [1, 3]: 2 h
- AUC(0-t) [1, 4]: 2.37 µg·h/mL
- half-life [1, 10]: 4.02 h
- AUC(0-inf) [1, 10]: 2.68 µg·h/mL
- AUC(0-t) [1, 5]: 0.99 µg·h/mL
- Cmax [1, 6]: 310 ng/mL
- half-life [1, 11]: 9.99 h
- AUC(0-inf) [1, 11]: 1.37 µg·h/mL
- Cmax [1, 7]: 580 ng/mL
- Tmax [1, 8]: 2 h
- 90 % CI of the GMR of AUC0−24h vs bioequivalent range of 0.8-1.25 ([1]; combination vs alone): outside the acceptable bioequivalent range
- 90 % CI of the GMR of Cmax vs bioequivalent range of 0.8-1.25 ([1]; combination vs alone): outside the acceptable bioequivalent range
- decrease in AUC0-24 h (as nmol h/mL) relative to the increase in artesunate AUC ([1]; in the presence of LPV/r): about 180%
- decrease in AUC0−∞ [1, 9]: ~48.8%
- decrease in Cmax [1, 9]: about 46.6%
- decrease in AUC0−24h [1, 12]: ~58.2%
- increase in t1/2z [1, 12]: 148.5%
- extrapolated AUC from the last blood sampling time to infinity (AUCt−∞) [1]: less than 5%
- inter-individual variability in AUC0−24h [1]: 80.2%
- t1/2z GMR (90 % CI) ([1]; with LPV/r vs alone): 1.89 (1.00, 3.58)

More lines, main results first:

- AUC0–12h [1, 13]: 103.32 (82.62, 124.01) μg h/mL
- Tmax [1, 13]: 4.0 (3.1, 4.8) h
- Cmax [1, 14]: 9.62 (7.99, 11.24) μg/mL
- Cmax [1, 15]: 12400 ng/mL
- AUC(0-inf) [1, 16]: 229 µg·h/mL
- Vd/F [1, 16]: 0.45 L/kg
- half-life [1, 16]: 9.8 h
- AUC(0-t) [1, 17]: 90.5 µg·h/mL
- AUC(0-inf) [1, 18]: 130 µg·h/mL
- Vd/F [1, 18]: 0.53 L/kg
- half-life [1, 18]: 6.6 h
- decrease in Cmax [1, 19]: 22% and 22.1%
- increase in CL/F [1, 19]: 75.4%
- extrapolated AUC from the last blood sampling time to infinity (AUCt−∞) [1]: less than 5%
- inter-individual variability of plasma concentrations [1]: 50.6 to 127.6%
- t1/2z GMR (90 % CI) [1, 20]: 0.71 (0.45, 1.13)
Structure (SMILES): Cc1cccc(C)c1OCC(=O)N[C@@H](Cc1ccccc1)[C@@H](O)C[C@H](Cc1ccccc1)NC(=O)[C@H](C(C)C)N1CCCNC1=O [Lopinavir, lopinavir]
- 90 % CI of the GMR of Cmax vs bioequivalent range of 0.8-1.25 ([1]; combination vs alone): outside the acceptable bioequivalent range

- CL/F ([1]; 3-day artesunate-mefloquine alone (Period 1)): 1.08 (0.78, 1.37) L/h
- CL/F ([1]; 3-day artesunate-mefloquine with LPV/r (Period 3)): 1.67 (1.03, 2.30) L/h
- lower CL/F relative to previous study [1, 21]: 33.4%
- smaller Vz/F relative to previous study [1, 21]: 40%
- Tmax [1, 3]: 33 h
- AUC(0-t) ([1]; both sexes, human, oral, 3-day artesunate-mefloquine alone (Period 1), read-out: AUC0–48h): 952 µg·h/mL
- half-life [1, 10]: 344 h
- AUC(0-inf) [1, 10]: 1160 µg·h/mL
- Vd/F [1, 10]: 9.24 L/kg
- AUC(0-t) ([1]; both sexes, human, oral, 3-day artesunate-mefloquine with LPV/r (Period 3), read-out: AUC0–48h): 678 µg·h/mL
- Cmax [1, 6]: 2340 ng/mL
- half-life [1, 11]: 336 h
- AUC(0-inf) [1, 11]: 751 µg·h/mL
- Vd/F [1, 11]: 12.8 L/kg
- Cmax [1, 7]: 2900 ng/mL
- Tmax [1, 8]: 33 h
- decrease in AUC0−48h [1, 9]: 28.7%
- decrease in AUC0−168h [1, 9]: 37.1%
- decrease in AUC0−∞ [1, 9]: 35.2%
- decrease in Cmax [1, 9]: 19.3%
- increase in CL/F [1, 9]: 54.6%
- increase in Vz/F [1, 9]: 37.9%
- reduction in Cmax and systemic exposure [1, 9]: 19–37%
- extrapolated AUC from the last blood sampling time to infinity (AUCt−∞) [1]: less than 10%
- inter-individual variability of plasma concentrations [1]: 34.2 to 96.9%
- t1/2z GMR (90 % CI) ([1]; with LPV/r vs alone): 1.14 (0.90, 1.45)
Structure (SMILES): OC(c1cc(C(F)(F)F)nc2c(C(F)(F)F)cccc12)C1CCCCN1 (centres unmarked) [Mefloquine, mefloquine]
- 90 % CI of the GMR of AUC0−168h vs bioequivalent range of 0.8-1.25 ([1]; combination vs alone): outside the acceptable bioequivalent range
- 90 % CI of the GMR of AUC0−∞ vs bioequivalent range of 0.8-1.25 ([1]; combination vs alone): outside the acceptable bioequivalent range
- 90 % CI of the GMR of Cmax vs bioequivalent range of 0.8-1.25 ([1]; combination vs alone): outside the acceptable bioequivalent range

- AUC0–12h [1, 13]: 8.11 (5.71, 10.50) μg h/mL
- Tmax [1, 13]: 4.0 (3.1, 4.8) h
- CL/F [1, 13]: 9.27 (4.74, 13.80) L/h
- Tmax [1, 14]: 4.0 (3.1, 4.8) h
- CL/F [1, 14]: 21.24 (8.71, 33.77) L/h
- Cmax [1, 15]: 1530 ng/mL
- AUC(0-inf) [1, 16]: 10.8 µg·h/mL
- Vd/F [1, 16]: 0.97 L/kg
- half-life [1, 16]: 4.3 h
- AUC(0-t) [1, 17]: 4.49 µg·h/mL
- Cmax ([1]; both sexes, human, oral, LPV/r with 3-day artesunate-mefloquine (Period 3), read-out: Cmax): 680 ng/mL
- AUC(0-inf) [1, 18]: 4.71 µg·h/mL
- Vd/F [1, 18]: 1.75 L/kg
- half-life [1, 18]: 3.7 h
- decrease in AUC0–12h [1, 19]: 44.6%
- decrease in AUC0−∞ [1, 19]: 56.3%
- decrease in Cmax [1, 19]: 54.9%
- increase in CL/F [1, 19]: 129.1%
- increase in Vz/F [1, 19]: 80.4%
- extrapolated AUC from the last blood sampling time to infinity (AUCt−∞) [1]: less than 5%
- inter-individual variability of plasma concentrations [1]: 21.3 to 62.9%
- t1/2z GMR (90 % CI) [1, 20]: 0.87 (0.68, 1.11)
Structure (SMILES): CC(C)c1nc(CN(C)C(=O)N[C@H](C(=O)N[C@@H](Cc2ccccc2)C[C@H](O)[C@H](Cc2ccccc2)NC(=O)OCc2cncs2)C(C)C)cs1 [Ritonavir, ritonavir]
- 90 % CI of the GMR of AUC0−12h vs bioequivalent range of 0.8-1.25 ([1]; combination vs alone): outside the acceptable bioequivalent range
- 90 % CI of the GMR of AUC0−∞ vs bioequivalent range of 0.8-1.25 ([1]; combination vs alone): outside the acceptable bioequivalent range
- 90 % CI of the GMR of Cmax vs bioequivalent range of 0.8-1.25 ([1]; combination vs alone): outside the acceptable bioequivalent range
